Assays:
GSTe4 = biological target: T1, GSTe4 (Plutella xylostella, UniProt X5D048); assay: CDNB-GSH conjugation, absorbance at […] nm; format: biochemical; conditions: 1 mM GSH, 100 mM phosphate buffer, CDNB 0.05-1.6 mM
T1 construct: recombinant, pET-30a(+), E. coli BL21(DE3), Ni-NTA purified, about 25 kDa expected
T1 sequence (X5D048 1-220): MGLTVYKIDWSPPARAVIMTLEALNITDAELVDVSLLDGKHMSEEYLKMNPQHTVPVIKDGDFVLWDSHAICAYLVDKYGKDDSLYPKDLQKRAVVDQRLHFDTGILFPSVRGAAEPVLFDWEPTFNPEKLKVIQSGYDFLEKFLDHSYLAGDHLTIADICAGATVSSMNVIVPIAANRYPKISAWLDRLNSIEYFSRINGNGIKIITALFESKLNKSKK

GSTd4 = biological target: T2, GSTd4 (Plutella xylostella, UniProt X5CCB0); assay: CDNB-GSH conjugation, absorbance at […] nm; format: biochemical; conditions: 1 mM GSH, 100 mM phosphate buffer, CDNB 0.05-1.6 mM
T2 construct: recombinant, pET-30a(+), E. coli BL21(DE3), Ni-NTA purified, about 25 kDa expected
T2 sequence (X5CCB0 1-219): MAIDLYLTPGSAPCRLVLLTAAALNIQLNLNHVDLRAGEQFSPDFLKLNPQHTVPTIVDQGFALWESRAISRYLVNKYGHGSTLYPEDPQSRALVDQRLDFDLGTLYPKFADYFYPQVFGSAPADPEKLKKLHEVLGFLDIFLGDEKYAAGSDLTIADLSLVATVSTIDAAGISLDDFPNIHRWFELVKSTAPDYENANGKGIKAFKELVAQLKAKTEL

GSTd5 = test system: T3, GSTd5; assay: CDNB-GSH conjugation, absorbance at […] nm; format: biochemical, Plutella xylostella; conditions: 1 mM GSH, 100 mM phosphate buffer, CDNB 0.05-1.6 mM
T3 construct: recombinant, pET-30a(+), E. coli BL21(DE3), Ni-NTA purified, about 25 kDa expected

GSTs1 [1] = biological target: T4, GSTs1 (Plutella xylostella, UniProt Q6F443); assay: CDNB-GSH conjugation, absorbance at […] nm; format: biochemical; conditions: 1 mM GSH, 100 mM phosphate buffer, CDNB 0.05-1.6 mM
T4 construct: recombinant, pET-30a(+), E. coli BL21(DE3), Ni-NTA purified, about 25 kDa expected
T4 sequence (Q6F443 1-204): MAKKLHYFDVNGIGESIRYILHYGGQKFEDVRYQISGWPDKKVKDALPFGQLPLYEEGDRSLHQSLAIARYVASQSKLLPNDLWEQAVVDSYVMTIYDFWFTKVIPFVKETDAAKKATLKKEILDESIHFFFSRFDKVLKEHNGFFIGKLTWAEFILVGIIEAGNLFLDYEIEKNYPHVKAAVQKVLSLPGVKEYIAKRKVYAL

GSTd2 [2] = biological target: T5, GSTd2 (Plutella xylostella, UniProt X5CJR6); assay: CDNB-GSH conjugation, absorbance at […] nm; format: biochemical; conditions: 1 mM GSH, 100 mM phosphate buffer, CDNB 0.05-1.6 mM
T5 construct: recombinant, pET-30a(+), E. coli BL21(DE3), Ni-NTA purified, about 25 kDa expected
T5 sequence (X5CJR6 1-247): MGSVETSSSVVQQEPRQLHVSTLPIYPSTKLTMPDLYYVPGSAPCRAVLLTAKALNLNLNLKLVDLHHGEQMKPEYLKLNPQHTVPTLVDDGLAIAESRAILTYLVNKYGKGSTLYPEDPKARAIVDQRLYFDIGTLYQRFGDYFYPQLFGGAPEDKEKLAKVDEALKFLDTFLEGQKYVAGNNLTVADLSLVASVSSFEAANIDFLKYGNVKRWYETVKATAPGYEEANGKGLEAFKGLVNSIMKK

GSTs2 [3] = biological target: T6, GSTs2 (Plutella xylostella, UniProt Q6F436); assay: CDNB-GSH conjugation, absorbance at […] nm; format: biochemical; conditions: 1 mM GSH, 100 mM phosphate buffer, CDNB 0.05-1.6 mM
T6 construct: recombinant, pET-30a(+), E. coli BL21(DE3), Ni-NTA purified, about 25 kDa expected
T6 sequence (Q6F436 1-204): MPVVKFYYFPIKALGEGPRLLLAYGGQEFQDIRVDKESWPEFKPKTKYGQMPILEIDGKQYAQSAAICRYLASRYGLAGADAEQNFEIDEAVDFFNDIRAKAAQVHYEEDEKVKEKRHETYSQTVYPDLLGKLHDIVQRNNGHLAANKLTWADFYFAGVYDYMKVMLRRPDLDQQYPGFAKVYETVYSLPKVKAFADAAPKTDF

GSTe5 = biological target: T7, GSTe5 (Plutella xylostella, UniProt X5CJR9); assay: CDNB-GSH conjugation, absorbance at […] nm; format: biochemical; conditions: 1 mM GSH, 100 mM phosphate buffer, CDNB 0.05-1.6 mM
T7 construct: recombinant, pET-30a(+), E. coli BL21(DE3), Ni-NTA purified, about 25 kDa expected
T7 sequence (X5CJR9 1-232): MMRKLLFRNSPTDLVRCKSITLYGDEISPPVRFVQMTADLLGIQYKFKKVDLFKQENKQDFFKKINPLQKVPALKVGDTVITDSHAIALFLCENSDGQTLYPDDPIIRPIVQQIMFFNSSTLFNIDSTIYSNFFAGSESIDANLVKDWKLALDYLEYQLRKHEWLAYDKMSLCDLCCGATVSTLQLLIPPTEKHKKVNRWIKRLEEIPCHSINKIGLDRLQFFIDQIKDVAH

GSTd1 [4] = biological target: T8, GSTd1 (Plutella xylostella, UniProt A0A8S4F7H5); assay: CDNB-GSH conjugation, absorbance at […] nm; format: biochemical; conditions: 1 mM GSH, 100 mM phosphate buffer, CDNB 0.05-1.6 mM
T8 construct: gene PLXY2_LOCUS7699; recombinant, pET-30a(+), E. coli BL21(DE3), Ni-NTA purified, about 25 kDa expected
T8 sequence (A0A8S4F7H5 1-243 limits assumed): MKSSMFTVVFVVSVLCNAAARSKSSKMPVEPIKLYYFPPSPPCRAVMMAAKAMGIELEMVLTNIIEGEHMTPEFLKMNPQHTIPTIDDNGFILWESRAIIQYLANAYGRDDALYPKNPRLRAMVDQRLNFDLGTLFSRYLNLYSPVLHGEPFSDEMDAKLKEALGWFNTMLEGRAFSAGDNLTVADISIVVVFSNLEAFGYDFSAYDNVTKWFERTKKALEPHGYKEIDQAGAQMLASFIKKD

GSTd3 = biological target: T9, GSTd3 (Plutella xylostella, UniProt D7URW9); assay: CDNB-GSH conjugation, absorbance at […] nm; format: biochemical; conditions: 1 mM GSH, 100 mM phosphate buffer, CDNB 0.05-1.6 mM
T9 construct: gene PxGSTd; recombinant, pET-30a(+), E. coli BL21(DE3), Ni-NTA purified, about 25 kDa expected
T9 sequence (D7URW9 1-215): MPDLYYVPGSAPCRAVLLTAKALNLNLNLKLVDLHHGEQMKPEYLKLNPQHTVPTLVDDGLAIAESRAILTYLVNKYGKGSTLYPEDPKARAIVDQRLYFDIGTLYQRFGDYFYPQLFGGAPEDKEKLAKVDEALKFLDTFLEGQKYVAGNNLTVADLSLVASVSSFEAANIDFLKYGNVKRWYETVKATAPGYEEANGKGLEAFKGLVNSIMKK

GSTd1 [5] = biological target: T8, GSTd1; assay: inhibition of CDNB-GSH conjugation, absorbance at […] nm; format: biochemical; conditions: CDNB and GSH substrates, PBS, 10 min preincubation at 25 °C; competitive (authors' inference)
GSTd2 [6] = biological target: T5, GSTd2; assay: as above; format: biochemical; conditions: CDNB and GSH substrates, PBS, 10 min preincubation at 25 °C; competitive (authors' inference)
GSTs1 [7] = biological target: T4, GSTs1; assay: as above; format: biochemical; conditions: CDNB and GSH substrates, PBS, 10 min preincubation at 25 °C; competitive (authors' inference)
GSTs2 [8] = biological target: T6, GSTs2; assay: as above; format: biochemical; conditions: CDNB and GSH substrates, PBS, 10 min preincubation at 25 °C; competitive (authors' inference)

| Compound | Km (GSTe4) [µM] | Km (GSTd4) [µM] | Km (GSTd5) [µM] | Km (GSTs1 [1]) [µM] | Km (GSTd2 [2]) [µM] | Km (GSTs2 [3]) [µM] | Km (GSTe5) [µM] | Km (GSTd1 [4]) [µM] | Km (GSTd3) [µM] | relative activity at 1 mM (GSTd1 [5]) | relative activity at 1 mM (GSTd2 [6]) | relative activity at 1 mM (GSTs1 [7]) | relative activity at 1 mM (GSTs2 [8]) |
| --- | --- | --- | --- | --- | --- | --- | --- | --- | --- | --- | --- | --- | --- |
| O=[N+]([O-])c1ccc(Cl)c([N+](=O)[O-])c1 [1-chloro-2,4-dinitrobenzene] | 413 | 1120 | 546 | 684 | 682 | 469 | 705 | 691 | 1010 | – | – | – | – |
| CC12C(=O)OC(=O)C1C1CCC2O1 [(S)-(−)-palasonin] | – | – | – | – | – | – | – | – | – | 0.35 fraction of control | 0.55 fraction of control | 0.26 fraction of control | 0.51 fraction of control |
